BindingDB's records for PubMed 35429911 (Univ. Lille, 2022)

Biological target: Programmed cell death 1 ligand/protein 1 (Homo sapiens, UniProt Q9NZQ7+Q15116)
Assay: Inhibition of human PD-1/PD-L1 interaction in CHO-K1 cells transfected with PD-1-YFP/SHP-2-CFP and measured by FRET assay

Programmed cell death 1 ligand/protein 1, sequence (Q9NZQ7 whole entry): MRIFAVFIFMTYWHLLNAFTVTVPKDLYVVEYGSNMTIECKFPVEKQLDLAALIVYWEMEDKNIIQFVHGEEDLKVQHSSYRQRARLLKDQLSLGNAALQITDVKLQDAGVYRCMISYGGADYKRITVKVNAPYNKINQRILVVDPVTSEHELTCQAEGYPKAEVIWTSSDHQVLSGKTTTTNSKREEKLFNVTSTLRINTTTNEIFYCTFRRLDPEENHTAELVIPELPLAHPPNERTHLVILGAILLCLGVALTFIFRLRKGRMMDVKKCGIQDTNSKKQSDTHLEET
Programmed cell death 1 ligand/protein 1, sequence (Q15116 whole entry): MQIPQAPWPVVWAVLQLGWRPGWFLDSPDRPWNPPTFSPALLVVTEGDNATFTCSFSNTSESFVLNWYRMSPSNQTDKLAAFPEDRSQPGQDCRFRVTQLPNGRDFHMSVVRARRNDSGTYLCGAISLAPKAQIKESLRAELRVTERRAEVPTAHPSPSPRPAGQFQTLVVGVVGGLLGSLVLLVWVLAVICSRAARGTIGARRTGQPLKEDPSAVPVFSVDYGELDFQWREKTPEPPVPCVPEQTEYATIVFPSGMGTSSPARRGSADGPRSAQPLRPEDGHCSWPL

Structure (SMILES) | IC50
COc1ccc(C2=NN(c3ccccn3)C(=O)C2)cc1 | 17 nM
COc1ccccc1C1=NN(c2ccccn2)C(=O)C1 | 7 nM
